Source: patent US20050208511A1, “DMBT1 as a clinical marker and uses thereof” (priority 2003, published 2005)

Tested on: endometrium
Assay: average endometrial thickness in treated monkeys
Format: in vivo, cynomolgus monkeys (Macaca fascicularis)
Conditions: Intact/leuprolide (leuprolide for 40 days)

CCNC(=O)[C@@H]1CCCN1C(=O)[C@H](CCCNC(=N)N)NC(=O)[C@H](CC(C)C)NC(=O)[C@@H](CC(C)C)NC(=O)[C@H](Cc1ccc(O)cc1)NC(=O)[C@H](CO)NC(=O)[C@H](Cc1c[nH]c2ccccc12)NC(=O)[C@H](Cc1c[nH]cn1)NC(=O)[C@@H]1CCC(=O)N1 [leuprolide]
Endometrial Thickness (mm): 1.25 mm
